The source of these data is publication PMC12574689, “Synthesis of novel SRPK1-targeting hybrid compounds incorporating antimetabolites for cancer therapy” (RSC Medicinal Chemistry, 2025).

One data set relates to HeLa. As to the kind of experiment: MTT viability assay, HeLa. The format is cell-based. As to conditions: Homo sapiens, 48 h treatment, mean of three independent experiments. Here is the method: (§1) To evaluate the cytotoxic effects of the hybrid compounds geo15 and geo140, we performed MTT assays on HeLa, K562, A549, HepG2, HT-29 and Caco2 cancer cell lines, as well as primary intestinal subepithelial myofibroblasts (SEMFs).
(§2) HeLa, K562, HT-29, Caco-2, HepG2 and A549 cancer cell lines were obtained from the American Type Culture Collection (ATCC). All cell lines were cultured at 37 °C with 5% CO2. HeLa, Caco-2, HepG2 and A549 cells were maintained in Dulbecco's modified Eagle medium (DMEM, PAN Biotech) supplemented with 10% FBS and antibiotics/antimycotics, while K562 cells were maintained in RPMI and HT-29 cells in McCoy's 5a medium (Biosera) with the same supplements.
(§3) All cells were seeded in 96-well plates (Corning, New York, USA) at density of 10^4 cells per well, except HeLa that were seeded at destiny of 2 × 10^3. After 24 hours, the cells were treated with increasing concentrations of the inhibitory compounds for 48 hours. Cytotoxic activity of parent and conjugate compounds was assessed by 3-(4,5-dimethylthiazol-2-yl)-2,5-diphenyltetrazolium bromide (MTT) assay, according to manufacturer's instructions. In brief, 100 μl of growth medium containing 0.5 mg ml^−1 MTT (Sigma-Aldrich, Darmstadt, Germany) were added to each well of a 96-well plate and incubated at 37 °C and 5% CO2 for 2 hours until the formation of visible intracellular purple crystals. Then, MTT-supplemented growth medium was discarded and 100 μl dimethyl sulfoxide (Sigma-Aldrich, Darmstadt, Germany) were added per well for solubilization of dye. Absorbance was then measured on a microplate reader (Diareader EL 800; Dialab, Wr. Neudorf, Austria) at 570 nm with a reference wavelength at 660 nm.
On the technique in general: Tetrazolium dyes change colour on reduction, which living cells bring about.

The subject of the next data set is K562. Nature of the data set: MTT viability assay, K562. The format is cell-based. As to conditions: Homo sapiens, 48 h treatment, mean of three independent experiments. Here is the method:
as §1, §2, §3

A further data set concerns A549. As to the kind of experiment: MTT viability assay, A549. The format is cell-based. Conditions: Homo sapiens, 48 h treatment, mean of three independent experiments. Here is the method:
as §1, §2, §3

In the next data set the test system is HepG2. Nature of the data set: MTT viability assay, HepG2. As to conditions: Homo sapiens, 48 h treatment, mean of three independent experiments. The format is cell-based. Here is the method:
as §1, §2, §3

The subject of another data set is HT-29. As to the kind of experiment: MTT viability assay, HT-29. Conditions: Homo sapiens; HT-29, MTT, 48 h treatment, mean of three independent experiments. The format is cell-based. On the procedure:
as §1, §2, §3

The test system of another data set is Caco2. As to the kind of experiment: MTT viability assay, Caco2. The format is cell-based. As to conditions: Homo sapiens, Caco-2, 48 h treatment, mean of three independent experiments. Here is the method:
as §1, §2, §3

The test system of data set [1] is primary intestinal subepithelial myofibroblasts (SEMFs). As to the kind of experiment: MTT viability assay, primary SEMFs. The format is cell-based. As to conditions: Homo sapiens, 48 h treatment, mean of three independent experiments.
From the text: as §1
Intestinal myofibroblast isolation: primary intestinal subepithelial myofibroblasts were isolated from freshly collected intestinal mucosa biopsies as previously described,[28] from healthy individuals undergoing endoscopy for reasons of surveillance, after obtaining written and informed consent. Briefly, 4–6 pieces of intestinal tissue were collected in ice-cold Hank's Balanced Salt Solution (HBSS; Biosera, Nuaille, France) containing Ca^2+/Mg^2+ supplemented with P/S/A/G: penicillin (100 U ml^−1), streptomycin (100 μg ml^−1), amphotericin (2.5 μg ml^−1) and gentamycin (50 μg ml^−1), followed by 15 minute washes with HBSS with and without Ca^2+/Mg^2+ to remove possible contaminants. Next tissue was de-epithelialized by a 15 minute incubation in HBSS without Ca^2+/Mg^2+ containing 1 mM dithiothreitol (DTT, Sigma-Aldrich, Darmstadt, Germany) followed by 3× 30 minute washes in HBSS supplemented with 1 mM ethylenediaminetetraacetic acid (EDTA, Sigma-Aldrich, Darmstadt, Germany) at 37 °C. Tissue was cultured in RPMI 1640 (PAN Biotech, Aidenbach, Germany) supplemented with 10% fetal bovine serum (FBS; Biosera, Nuaille, France) and P/S/A/G for as long as 30 days at 37 °C and 5% CO2. After colonies of myofibroblasts reached 30% confluency, cells were detached and consequently cultured in 75 cm^2 flasks in Dulbecco's modified Eagle medium (DMEM, 4.5 g l^−1 glucose; PAN Biotech, Aidenbach, Germany) with 10% fetal bovine serum and P/S/A.
as §3

Data set [2] is described as follows: Chemostability in pH 5.2 and 7.4 buffers and DMEM (LC-ESI-MS). As to conditions: 37 °C. The format is physicochemical. On the procedure:
(§4) The stability of SRPK1-targeting conjugates geo15 and geo140 was assessed at pH 5.2 and 7.4, as well as in cell culture medium (DMEM) and human plasma. All experiments were conducted at 37 °C, with samples analysed by LC-ESI-MS at specific time points. […] The half-lives of the conjugates ranged from several minutes to several hours, is discussed below.
(§5) Chemical stability experiments were conducted using LC-MS Method 4, except for the
(§6) pH stability studies of compound geo15, which were performed using LC-MS Method
(§7) 3. Representative chromatograms are provided for each experiment. geo15:
(§8) Figure S16. Chemical stability assay LC chromatograms for geo15.
(§9) Figure S17. Chemical stability assay LC chromatograms for geo140.

Data set [3] is described as follows: Stability in human plasma (LC-ESI-MS). The format is in vitro ADME. Conditions: 37 °C. Here is the method: as §4, §5, §6, §7, §8, §9
In the next data set the test system is SRPK1 in HeLa cells. As to the kind of experiment: Immunofluorescence of SRPK1 subcellular localization. The format is cell-based. Here is the method: In a following step the effect of geo140 was tested on the subcellular distribution of SRPK1 in HeLa cells. To address this issue, a series of immunofluorescence experiments was performed to assess the effect of geo140, relative to its parent compounds, JH-VII-139-1 and 5-FU on SRPK1 localization.
Fig. 6 Fluorescent patterns of SRPK1 in HeLa cells treated with JH-VII-139-1, 5-FU, and geo140 (for the indicated concentrations and time periods). SRPK1 was detected using an anti-SRPK1 monoclonal antibody (Alexa488-green fluorescence) while nuclei were stained with PI (red fluorescence). Scale bar: 10 μm.
HeLa cells (3 × 10^4 cells per well) were seeded on glass coverslips in 24-well plates. After 24 hours, cells were treated with the indicated concentrations of inhibitors for 24 or 48 hours. Following incubation, samples were fixed with 4% paraformaldehyde in PBS for 20 minutes at room temperature. Paraformaldehyde was quenched with 100 mM Tris-HCl (pH 7.5), and cells were permeabilized with 0.2% Triton X-100 in PBS for 10 minutes. Blocking was performed with 0.5% fish skin gelatin in PBS. Cells were then probed with a primary antibody (anti-SRPK1 monoclonal, 1 : 100 dilution, BD Biosciences, San Jose, CA, USA) and a secondary antibody (Alexa488-conjugated goat anti-mouse, 1 : 400 dilution, Molecular Probes, Eugene, OR, USA), followed by DNA staining with propidium iodide, as previously described.[25] Coverslips were mounted with mounting medium (0.01% p-phenylenediamine and 50% glycerol in PBS) and visualized using a Nikon confocal microscope with EZ-C1 3.20 software.

A further data set concerns the target T1, GST-SRPK1 (Homo sapiens, UniProt Q96SB4).
T1 construct: made in house; host or cells: bacteria (pGEX-2T vector)
As to the kind of experiment: In vitro kinase assay, GST-SRPK1. The format is biochemical. As to conditions: substrate GST-LBRNt(62–92), 25 μM ATP. Here is the method: (§10) The inhibitory activity of geo140 and JH-VII-139-1 against SRPK1 and SRPK2 was assessed using in vitro kinase assays (Fig. 5). […] The IC50 values summarized in Panel E indicate that both JH-VII-139-1 and the hybrid compound geo140 act as effective inhibitors of SRPK-mediated phosphorylation, with however, differential selectivity between SRPK1 and SRPK2.
(§11) Fig. 5 Phosphorylation of 1 μg GST-LBRNt(62–92) by 0.5 μg GST-SRPK1 or 0.5 μg GST-SRPK2 in the presence of increasing concentrations of geo140 (A and B, respectively) or in the presence of increasing concentrations of JH-VII-139-1 (C and D, respectively). Panel C was taken from a previous publication of the authors.[2] The samples were analyzed by SDS-PAGE on 12% gels, stained with Coomassie blue and autoradiographed. Only the relevant part of the autorad corresponding to the phosphorylated substrate is shown. E. IC50 values of geo140 and JH-VII-139-1 against GST-SRPK1 and GST-SRPK2.
(§12) Human SRPK1, SRPK2, and a turkey LBR N-terminal fragment (amino acids 62–92; LBRNt(62–92)) were expressed as GST-fusion proteins in bacteria using the pGEX-2T vector (Amersham Biosciences) as previously described.[15] […] Phosphorylated GST-LBRNt(62–92) was detected by autoradiography (Super RX film, Fujifilm). Incorporated radioactivity was quantified by scintillation counting of the excised SDS-PAGE gel bands.

The next data set concerns the target T2, GST-SRPK2 (Homo sapiens, UniProt P78362).
T2 construct: made in house; host or cells: bacteria (pGEX-2T vector)
As to the kind of experiment: In vitro kinase assay, GST-SRPK2. Conditions: substrate GST-LBRNt(62–92), 25 μM ATP. The format is biochemical. On the procedure: as §10, §11, §12

The subject of the next data set is HeLa cells. Nature of the data set: Inverted phase-contrast microscopy of treated cells. As to conditions: 10 μM, phase-contrast microscope. The format is cell-based. Here is the method: A similar morphology of geo140-treated cells was also observed using an inverted phase-contrast microscope.
Fig. 7 Microscopic view of control HeLa cells and treated with 10 μM geo140, taken at 10× or 40× magnification as indicated, using an inverted phase-contrast microscope.

T1 sequence (Q96SB4 whole entry): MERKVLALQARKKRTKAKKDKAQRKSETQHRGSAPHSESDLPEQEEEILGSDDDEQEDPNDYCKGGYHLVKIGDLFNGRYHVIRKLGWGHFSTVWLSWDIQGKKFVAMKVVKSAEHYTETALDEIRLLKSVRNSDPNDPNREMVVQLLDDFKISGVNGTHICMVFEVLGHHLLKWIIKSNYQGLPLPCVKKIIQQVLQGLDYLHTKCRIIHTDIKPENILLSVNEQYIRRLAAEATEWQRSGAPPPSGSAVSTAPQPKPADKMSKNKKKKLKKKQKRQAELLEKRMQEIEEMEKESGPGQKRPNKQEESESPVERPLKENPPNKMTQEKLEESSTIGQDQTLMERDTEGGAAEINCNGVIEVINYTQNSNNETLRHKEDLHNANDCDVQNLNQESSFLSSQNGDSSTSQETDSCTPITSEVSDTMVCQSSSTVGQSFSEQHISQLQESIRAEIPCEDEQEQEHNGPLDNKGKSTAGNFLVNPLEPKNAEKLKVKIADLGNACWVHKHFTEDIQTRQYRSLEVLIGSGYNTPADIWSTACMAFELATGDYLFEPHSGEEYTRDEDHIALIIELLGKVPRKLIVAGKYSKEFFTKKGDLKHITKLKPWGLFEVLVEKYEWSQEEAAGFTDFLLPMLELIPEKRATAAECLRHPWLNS
T2 sequence (P78362 whole entry): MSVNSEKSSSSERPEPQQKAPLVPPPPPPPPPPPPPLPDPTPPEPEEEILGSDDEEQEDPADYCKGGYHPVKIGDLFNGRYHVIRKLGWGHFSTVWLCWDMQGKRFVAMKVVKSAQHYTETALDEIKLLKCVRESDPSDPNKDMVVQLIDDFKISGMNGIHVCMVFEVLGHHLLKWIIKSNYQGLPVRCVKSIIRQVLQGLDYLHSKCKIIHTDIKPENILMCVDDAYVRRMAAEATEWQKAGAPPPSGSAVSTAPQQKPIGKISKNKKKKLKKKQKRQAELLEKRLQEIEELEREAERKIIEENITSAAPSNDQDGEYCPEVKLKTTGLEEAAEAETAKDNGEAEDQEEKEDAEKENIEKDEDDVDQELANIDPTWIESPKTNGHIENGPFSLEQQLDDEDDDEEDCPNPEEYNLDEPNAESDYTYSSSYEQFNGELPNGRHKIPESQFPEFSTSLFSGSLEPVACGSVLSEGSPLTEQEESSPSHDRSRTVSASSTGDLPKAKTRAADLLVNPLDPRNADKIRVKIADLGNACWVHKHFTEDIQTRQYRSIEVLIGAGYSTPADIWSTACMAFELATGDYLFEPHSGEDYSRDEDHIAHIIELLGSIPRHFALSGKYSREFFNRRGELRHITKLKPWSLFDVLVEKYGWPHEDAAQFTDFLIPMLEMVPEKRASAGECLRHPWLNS

Usually EC50 stands for the concentration needed to bring the measured effect to its halfway point. Read a low EC50 as an effect from little substance. One may read the half-life as the time needed for the level to fall by half in the phase considered. A higher half-life goes with slow loss. Turning to `COc1cc(/C=C(\C#N)C(=O)Nc2nnc(C(F)(F)F)s2)ccc1OCc1ccc(NC(=O)CNC(=O)OC[C@H]2O[C@@H](n3ccc(N)nc3=O)C(F)(F)[C@@H]2O)cc1` [geo15], the EC50 in the data set on HeLa is 33.1 µM; in the data set with K562, more than 50 µM; with A549, more than 50 µM; with HepG2 it was more than 50 µM; in the data set with HT-29, 38.4 µM; in the data set with Caco2 it was more than 50 µM. The same compound registered an EC50 in [1] of more than 50 µM. Besides, the half-life was more than 48 h in data set [2] (DMEM cell culture medium, DMEM); more than 48 h in [2] (pH 7.4 buffer); more than 48 h in [3]. In addition, the “detection of retro-Knoevenagel reaction product 21” value in [2] (DMEM) is “not observed”; in [2] (pH buffer media) it was “small percentage”; in data set [3] it was “not observed”. Further, in data set [2] (during the 24 hour period, overall stability profile (all media)), the “concentration of the conjugate remaining” value is “above 50%”. Further, the “release of SRPIN803 via the 1,6-elimination mechanism” value in data set [2] (stability media) is given as “no release of SRPIN803”.

Regarding `O=c1[nH]cc(F)c(=O)[nH]1` [5-FU, 5-fluorouracil, reference compound], the EC50 with HeLa is 25.7 µM; with K562, more than 50 µM; with A549, 15.2 µM; with HepG2, more than 50 µM; with HT-29, 3.62 µM; in the data set with Caco2, more than 50 µM. For the same compound, the EC50 in [1] was more than 50 µM. In addition, the “effect on SRPK1 subcellular localization” value with SRPK1 in HeLa cells (20 μM, 24 h) is “more diffuse SRPK1 staining pattern, with some nuclear translocation of the kinase”; in the data set with SRPK1 in HeLa cells (48 h), “almost complete nuclear translocation of SRPK1”.

Usually IC50 stands for the concentration at which inhibition is half-maximal. In the case of `CCc1cc2c(cc1-c1ccn(C(=O)NCCOCCOCCNC(=O)Cn3c(=O)[nH]cc(F)c3=O)n1)C(C)(C)c1[nH]c3cc(C#N)ccc3c1C2=O` [geo140, (JH-VII-139-1)–(5-FU) conjugate], the EC50 is 11.7 µM in the data set on HeLa; 13.7 µM in the data set on K562; more than 50 µM with A549; 27.1 µM in the data set with HepG2; 19.3 µM in the data set on HT-29; 31.2 µM with Caco2. In [1], this compound displayed an EC50 of 21.5 µM. The IC50 at GST-SRPK1 was 0.0221 µM; at GST-SRPK2, 7.9 µM. Also, the “reduction in initial concentration” value was 10–20% in data set [2] (DMEM, after 24 hours) and 10–20% in [3] (after 24 hours). In addition, the half-life in data set [2] (pH 5.2 buffer) and in data set [2] (pH 7.4 buffer) was more than 48 h each time. Besides, the “SRPK1 distribution in interphase cells” value in the data set with SRPK1 in HeLa cells is “SRPK1 retained a cytoplasmic distribution similar to that seen in untreated controls”. For the same compound, in the data set with SRPK1 in HeLa cells (immunofluorescence), the “number of mitotic cells” value was “significant increase in the number of mitotic cells”. In addition, in the data set with HeLa cells, the “mitotic cells (round shape, distinct chromosomal structures)” value is on record as “significant increase in mitotic cells”.

On to `Nc1ccn([C@@H]2O[C@H](CO)[C@@H](O)C2(F)F)c(=O)n1` [Gemcitabine, gemcitabine, reference compound], for which the EC50 in the data set on HeLa was 6.7 µM; with K562, more than 50 µM; in the data set with A549 it was more than 50 µM; with HepG2, 31.4 µM; in the data set with HT-29, 28.7 µM; with Caco2, more than 50 µM. The same compound gave an EC50 in [1] of more than 50 µM.
